Literature values, collected in article PMC13472183 (Journal of drug delivery science and technology, 2022).

Details: previous reported value, without the EDA modification

Tm (triple helix melting temperature): 50 °C
Substance: NH2-(VPGFG)6G-(GPO)7GG-CONH2 [F6-GPO7]
